Test results reported in patent US20260217701A1, “SELECTIVE BET INHIBITORS AND USES THEREOF” (Tay Therapeutics Limited, priority 2022, published 2026).
Marks after values point to notes of the source that are not given here.

Test system: experimental autoimmune encephalomyelitis
Assay: Experimental autoimmune encephalomyelitis (EAE) model: EAE scores, onset, incidence
Type: in vivo, C57BI/6 mice
Protocol: Experimental Method H: EAE in animals treated with a BET inhibitor and vehicle. Animals were assigned to the groups outlined in Table 38.
Compound A may be formulated as illustrated in Experimental Method A (see Table 2E.). A 40 mg/mL stock solution of Compound A in DMSO was prepared and aliquots stored at −20° C. On each day of preparation an e.g., 0.75 mL aliquot of thawed stock was diluted with an equal volume of DMSO. The remaining vehicle components were added to provide the highest dose and then diluted with vehicle to provide lower doses. A 30 mg/mL stock solution of FTY720 in ethanol was prepared and stored at −20° C. Daily, the stock solution was diluted with room temperature water to a final dosing concentration of 0.6 mg/mL. Formulated Compound A, FTY720 and vehicle were each at room temperature for dosing.
Female C57BI/6 mice (9 weeks old) were acclimated for seven days prior to study initiation. On Day-1, animals were assigned to groups in a balanced manner to achieve similar average weights across the different groups. Chronic EAE was induced in female C57BI/6 mice following immunization with an emulsion of MOG35-55/CFA on Day 0, followed by an injection of pertussis toxin two hours after the initial immunization. On Day 1, a second injection of pertussis toxin was administered 24 hours after the initial immunization. Mice were injected subcutaneously at two sites on the back with the MOG35-55/CFA emulsion (Hooke Kit™ MOG35-55/CFA Emulsion PTX). The first injection site was located approximately 1 cm caudal of the neckline (upper back), and the second injection site was approximately 2 cm cranial of the base of the tail (lower back). The injection volume was 0.1 mL for each injection. The pertussis toxin was administered at the described times through intraperitoneal injection at a concentration of 85 ng/dose for both injections.
Body weight was measured three times a week (Monday, Wednesday, and Friday) starting on Day-1. Animals were scored daily for EAE starting on Day 7. In-between scores were assigned when the clinical signs fell between two below defined scores.

[1] = all animals receiving Compound A

Cn1cc(-c2ccccc2)c(-c2cn(C)c(=O)c3[nH]c(-c4cnn(C(F)(F)F)c4)cc23)cc1=O [Compound A, 6-methyl-4-(1-methyl-2-oxo-5-phenyl-1,2-dihydropyridin-4-yl)-2-(1-(trifluoromethyl)-1H-pyrazol-4-yl)-1,6-dihydro-7H-pyrrolo[2,3-c]pyridin-7-one]
EAE incidence rate (1 mg/kg (lowest dose)): 100%
Mean maximum EAE scores relative to vehicle (1 mg/kg, 3 mg/kg and 10 mg/kg): significantly reduced mean maximum scores
EAE incidence rate (3 mg/kg): 91.7%
EAE incidence rate (10 mg/kg): 83.3%
Incidence of EAE (%) (Compound A 1 mg/kg (Group 2)): 100%
Mean Day of Onset (SEM) (Compound A 1 mg/kg (Group 2)): 14.5 (0.9) Day
Mean End Score (SEM) (Compound A 1 mg/kg (Group 2)): 1.05 (0.35)*
Mean Maximum Score (SEM) (Compound A 1 mg/kg (Group 2)): 2.18 (0.25)*
Median Day of Onset (Compound A 1 mg/kg (Group 2)): 13.0 days
Mean EAE score (Compound A 1 mg/kg (Group 2), Day 7): 0.00
Mean EAE score (Compound A 1 mg/kg (Group 2), Day 8): 0.00
Mean EAE score (Compound A 1 mg/kg (Group 2), Day 9): 0.00
Mean EAE score (Compound A 1 mg/kg (Group 2), Day 10): 0.00
Mean EAE score (Compound A 1 mg/kg (Group 2), Day 11): 0.05
Mean EAE score (Compound A 1 mg/kg (Group 2), Day 12): 0.18
Mean EAE score (Compound A 1 mg/kg (Group 2), Day 13): 0.55
Mean EAE score (Compound A 1 mg/kg (Group 2), Day 14): 0.95
Mean EAE score (Compound A 1 mg/kg (Group 2), Day 15): 1.27
Mean EAE score (Compound A 1 mg/kg (Group 2), Day 16): 1.45
Mean EAE score (Compound A 1 mg/kg (Group 2), Day 17): 1.73
Mean EAE score (Compound A 1 mg/kg (Group 2), Day 18): 1.68
Mean EAE score (Compound A 1 mg/kg (Group 2), Day 19): 1.68
Mean EAE score (Compound A 1 mg/kg (Group 2), Day 20): 1.55
Mean EAE score (Compound A 1 mg/kg (Group 2), Day 21): 1.64
Mean EAE score (Compound A 1 mg/kg (Group 2), Day 22): 1.32
Mean EAE score (Compound A 1 mg/kg (Group 2), Day 23): 1.23
Mean EAE score (Compound A 1 mg/kg (Group 2), Day 24): 1.23
Mean EAE score (Compound A 1 mg/kg (Group 2), Day 25): 1.09
Mean EAE score (Compound A 1 mg/kg (Group 2), Day 26): 1.14
Mean EAE score (Compound A 1 mg/kg (Group 2), Day 27): 1.09
Mean EAE score (Compound A 1 mg/kg (Group 2), Day 28): 1.05
Incidence of EAE (%) (Compound A 3 mg/kg (Group 3)): 91.7%
Mean Day of Onset (SEM) (Compound A 3 mg/kg (Group 3)): 14.2 (0.4) Day
Mean End Score (SEM) (Compound A 3 mg/kg (Group 3)): 0.73 (0.26)**
Mean Maximum Score (SEM) (Compound A 3 mg/kg (Group 3)): 1.77 (0.23)***
Median Day of Onset (Compound A 3 mg/kg (Group 3)): 14.0 days
Mean EAE score (Compound A 3 mg/kg (Group 3), Day 7): 0.00
Mean EAE score (Compound A 3 mg/kg (Group 3), Day 8): 0.00
Mean EAE score (Compound A 3 mg/kg (Group 3), Day 9): 0.00
Mean EAE score (Compound A 3 mg/kg (Group 3), Day 10): 0.00
Mean EAE score (Compound A 3 mg/kg (Group 3), Day 11): 0.00
Mean EAE score (Compound A 3 mg/kg (Group 3), Day 12): 0.00
Mean EAE score (Compound A 3 mg/kg (Group 3), Day 13): 0.29
Mean EAE score (Compound A 3 mg/kg (Group 3), Day 14): 0.63
Mean EAE score (Compound A 3 mg/kg (Group 3), Day 15): 0.88
Mean EAE score (Compound A 3 mg/kg (Group 3), Day 16): 1.29
Mean EAE score (Compound A 3 mg/kg (Group 3), Day 17): 1.67
Mean EAE score (Compound A 3 mg/kg (Group 3), Day 18): 1.54
Mean EAE score (Compound A 3 mg/kg (Group 3), Day 19): 1.18
Mean EAE score (Compound A 3 mg/kg (Group 3), Day 20): 1.23
Mean EAE score (Compound A 3 mg/kg (Group 3), Day 21): 1.18
Mean EAE score (Compound A 3 mg/kg (Group 3), Day 22): 0.95
Mean EAE score (Compound A 3 mg/kg (Group 3), Day 23): 0.91
Mean EAE score (Compound A 3 mg/kg (Group 3), Day 24): 0.91
Mean EAE score (Compound A 3 mg/kg (Group 3), Day 25): 0.95
Mean EAE score (Compound A 3 mg/kg (Group 3), Day 26): 0.95
Mean EAE score (Compound A 3 mg/kg (Group 3), Day 27): 0.95
Mean EAE score (Compound A 3 mg/kg (Group 3), Day 28): 0.73
Incidence of EAE (%) (Compound A 10 mg/kg (Group 4)): 83.3%
Mean Day of Onset (SEM) (Compound A 10 mg/kg (Group 4)): 13.4 (0.6) Day
Mean End Score (SEM) (Compound A 10 mg/kg (Group 4)): 0.29 (0.13)***
Mean Maximum Score (SEM) (Compound A 10 mg/kg (Group 4)): 1.67 (0.28)***
Median Day of Onset (Compound A 10 mg/kg (Group 4)): 13.0 days
Mean EAE score (Compound A 10 mg/kg (Group 4), Day 7): 0.00
Mean EAE score (Compound A 10 mg/kg (Group 4), Day 8): 0.00
Mean EAE score (Compound A 10 mg/kg (Group 4), Day 9): 0.00
Mean EAE score (Compound A 10 mg/kg (Group 4), Day 10): 0.00
Mean EAE score (Compound A 10 mg/kg (Group 4), Day 11): 0.04
Mean EAE score (Compound A 10 mg/kg (Group 4), Day 12): 0.21
Mean EAE score (Compound A 10 mg/kg (Group 4), Day 13): 0.83
Mean EAE score (Compound A 10 mg/kg (Group 4), Day 14): 1.04
Mean EAE score (Compound A 10 mg/kg (Group 4), Day 15): 1.33
Mean EAE score (Compound A 10 mg/kg (Group 4), Day 16): 1.46
Mean EAE score (Compound A 10 mg/kg (Group 4), Day 17): 1.46
Mean EAE score (Compound A 10 mg/kg (Group 4), Day 18): 1.54
Mean EAE score (Compound A 10 mg/kg (Group 4), Day 19): 1.21
Mean EAE score (Compound A 10 mg/kg (Group 4), Day 20): 1.13
Mean EAE score (Compound A 10 mg/kg (Group 4), Day 21): 1.17
Mean EAE score (Compound A 10 mg/kg (Group 4), Day 22): 0.75
Mean EAE score (Compound A 10 mg/kg (Group 4), Day 23): 0.71
Mean EAE score (Compound A 10 mg/kg (Group 4), Day 24): 0.63
Mean EAE score (Compound A 10 mg/kg (Group 4), Day 25): 0.46
Mean EAE score (Compound A 10 mg/kg (Group 4), Day 26): 0.50
Mean EAE score (Compound A 10 mg/kg (Group 4), Day 27): 0.46
Mean EAE score (Compound A 10 mg/kg (Group 4), Day 28): 0.29
Mean EAE score compared to positive control FTY720 (Day 28, 10 mg/kg): comparable mean EAE score
Day on which EAE scores peaked [1]: ~17 days
Mean end EAE scores relative to vehicle [1]: significantly reduced mean end scores
Mean day of onset of EAE compared with vehicle (all doses): similar
